From patent publication US10385395B2, “Diagnostic tools for response to 6-thiopurine therapy” (THE REGENTS OF THE UNIVERSITY OF CALIFORNIA, priority 2012, dated 2019)

B1: IFN-y: recombinant cytokine (R&D Systems) added to a final concentration of 20 ng ml-1 (protein, UniProt P01579 24-161, looked up)
Interferon gamma: QDPYVKEAENLKKYFNAGHSDVADNGTLFLGILKNWKEESDRKIMQSQIVSFYFKLFKNFKDDQSIQKSVETIKEDMNVKFFNSNKKKRDDFEKLTNYSVTDLNVQRKAIHELIQVMAELSPAAKTGKRKRSQMLFRG

What was measured:
NK cells = details: Crohn's disease patients; Brogan et al. 1985; cited from earlier work
[1] = tested on: CD4+ T cell proliferation; assay: T cell proliferation in the absence of NK cells with exogenous cytokines added; type: cell-based, human; details: cytokine added at 20 ng mL-1, three-day culture (FIG. 9)
Protocol: Before co-culture, round bottom 96-well plates were coated with anti-CD3/CD28 antibody (R&D Systems, Minneapolis, Minn.) in PBS at 1.5 ug ml^−1 at room temperature for 2 hours, or at 0.5 ug ml^−1 at 4° C. overnight. […] For transwell assay, 24-well plates were used; NT (cells were placed on the filter side of a 1.0 um pore-sized transwell (BD Falcon, San Jose, Calif.), and CFSE-stained T cells were placed on the plate side of the transwell.

Molecule	depletion of NK cells by therapy compared to other lymphoid cell types (NK cells)	CD4+ cell proliferation with exogenous cytokine [1]
Nc1nc2nc[nH]c2c(=S)[nH]1 [6-thioguanine]	quickly and profoundly depleted	–
IL-6: recombinant cytokine (R&D Systems) added to a final concentration of 20 ng ml-1	–	greatly facilitated
B1	–	marginal effects
